Assay results published in US7872153B2, “Salt of aliskiren with sulfuric acid” (Novartis AG, priority 2006, dated 2011).

Experiments:
[1] = hygroscopicity of the drug substance (statement); assay type: physicochemical; conditions: background statement
[2] = dynamic vapour sorption (DVS): water absorption or loss as a function of relative humidity; assay type: physicochemical; conditions: for change in mass in % (sorption) / change in mass in % (desorption): 25° C., 9.5 mg sample, 4 hours; for change in mass in % (sorption): cycle 0-95%; for change in mass in % (desorption): cycle 40-0
From the text: A clear characterisation of this property is achieved by means of isothermal measurements over predetermined time intervals and predetermined relative humidity using dynamic vapour sorption (DVS from the company Surface Measurement Systems LTD, Marlow, Buckinghamshire, UK). […] The following cycles of changes in relative humidity are shown: 40-0; 0-95% relative humidity: The measurement error of this sorption method based on thermogravimetry is about 0.1%.

Compound	hygroscopicity [1]	water absorption or loss ([2]; above 40% relative humidity)	water uptake compared with the hemifumarate ([2]; below 40% relative humidity)	change in mass in % (sorption) ([2]; relative humidity 0%) [%]	change in mass in % (desorption) ([2]; relative humidity 0%) [%]	change in mass in % (sorption) ([2]; relative humidity 10%) [%]	change in mass in % (desorption) ([2]; relative humidity 10%) [%]	change in mass in % (sorption) ([2]; relative humidity 20%) [%]	change in mass in % (desorption) ([2]; relative humidity 20%) [%]	change in mass in % (sorption) ([2]; relative humidity 30%) [%]	change in mass in % (desorption) ([2]; relative humidity 30%) [%]	change in mass in % (sorption) ([2]; relative humidity 40%) [%]	change in mass in % (desorption) ([2]; relative humidity 40%) [%]	change in mass in % (sorption) ([2]; relative humidity 50%) [%]	change in mass in % (sorption) ([2]; relative humidity 60%) [%]	change in mass in % (sorption) ([2]; relative humidity 70%) [%]	change in mass in % (sorption) ([2]; relative humidity 80%) [%]	change in mass in % (sorption) ([2]; relative humidity 90%) [%]	change in mass in % (sorption) ([2]; relative humidity 95%) [%]
COCCCOc1cc(C[C@@H](C[C@H](N)[C@@H](O)C[C@H](C(=O)NCC(C)(C)C(N)=O)C(C)C)C(C)C)ccc1OC [aliskiren, 2(S),4(S),5(S),7(S)—N-(3-amino-2,2-dimethyl-3-oxopropyl)-2,7-di(1-methylethyl)-4-hydroxy-5-amino-8-[4-methoxy-3-(3-methoxy-propoxy)phenyl]-octanamide]	highly hygroscopic	–	–	–	–	–	–	–	–	–	–	–	–	–	–	–	–	–	–
COCCCOc1cc(C[C@@H](C[C@H](N)[C@@H](O)C[C@H](C(=O)NCC(C)(C)C(N)=O)C(C)C)C(C)C)ccc1OC.O=S(=O)(O)O [hydrogen sulfate salt of aliskiren]	–	significant water absorption or loss	does not take up as much water as the hemifumarate	0.00	0.00	0.46	0.88	0.84	1.25	1.31	1.67	1.98	2.20	3.39	7.07	8.88	13.43	25.83	40.62
